Data from patent US7129265B2, “Synergistic effects of amlodipine and atorvastatin metabolite as a basis for combination therapy” (priority 1999, dated 2006).

Columns and labels:
[1] = Small angle X-ray diffraction analysis of membrane bilayer structure; format: physicochemical; conditions: drug to phospholipid 1:15; for overall membrane bilayer width, including surface hydration: without drug 55.5 Å
Method: The lipids (1-palmitoyl-2-oleoyl phosphatidylcholine and cholesterol) used for these samples were dissolved in HPLC-grade chloroform (10.0 mg/ml). Membrane vesicles were produced from these lipids by the same method as described for the peroxidation experiments. The final phospholipid concentration was 5.0 mg/ml buffer and the mole ratio of drug to phospholipid was 1:15. Membrane samples were oriented for diffraction analysis by subjecting them to centrifugation as previously described (Chester D W, Herbette L G, Mason R P, Joslyn A F, Triggle D J, Koppel D E. Diffusion of dihydropyridine calcium channel antagonists in cardiac sarcolemmal lipid multibilayers. Biophys. J. 1987; 52:1021–1030). Briefly, vesicles were placed in sedimentation cells that contained an aluminum foil substrate. The vesicles were sedimented in an SW-28 rotor (Beckman Instruments Fullerton, Calif.) at 35,000×g for 1.5 h at 5° C. Following centrifugation, the supernatant was removed from the pellets and the samples were then mounted on to curved glass supports. Samples were placed in sealed canisters to control relative humidity and temperature during the diffraction experiments, as previously described in detail (Chester D W, Herbette L G, Mason R P, Joslyn A F, Triggle D J, Koppel D E. Diffusion of dihydropyridine calcium channel antagonists in cardiac sarcolemmal lipid multibilayers. Biophys. J. 1987; 52: 1021–1030).
X-ray diffraction experiments were conducted by aligning the samples at grazing incidence with respect to a collimated, nickel-filtered monochromatic X-ray source (CuKα1.54 Å) produced by a high-brilliance rotating anode microfocus generator (Rigaku Rotaflex RU-200, Danvers, Mass.). The fixed geometry beam line consisted of a single, nickel-coated Franks mirror to define a line source where Kα and Kα are unresolved. […] The phases for the four-order data were determined by swelling analysis (Moody M F. X-ray diffraction pattern of nerve myelin: A method for determining the phases. Science 1963; 142:1173–117). […]

[2] = Membrane lipid peroxidation analysis (CHOD-Iodide assay) in membrane vesicles; format: biochemical
Method: In these experiments, oxidation occurred in a gradual, time-dependent manner that was measured spectrophotometrically over a 72 h period.
The separate and combined dose-dependent antioxidant activities of these agents were examined in membranes enriched with PUFA prepared at a 0.5 cholesterol to phospholipid mole ratio (Mason R P, Walter M F, Trumbore M W, Olmstead Jr. E G, Mason P E. Membrane antioxidant effects of the charged dihydropyridine calcium antagonist amlodipine. J. Mol Cell. Cardiol. 1999; 31:275–281). The lipid (dilinoleoyl phosphatidylcholine and cholesterol) used for these samples was dissolved in HPLC-grade chloroform (25.0 mg/ml). […]
Membrane lipid peroxidation was carried out at 37° C. in a shaking water bath without the addition of exogenous stimulants, as previously described in detail (Mason R P, Walter M F, Trumbore M W, Olmstead Jr. E G, Mason P E. Membrane antioxidant effects of the charged dihydropyridine calcium antagonist amlodipine. J. Mol. Cell. Cardiol. 1999; 31:275–281). […] The extent of membrane lipid peroxidation was measured by the CHOD-Iodide assay as previously described in detail (El-Saadani M, Esterbauer H, el-Sayed M, Goher M, Nassar A Y, Jurgens G. A spectrophotometric assay for lipid peroxides in serum lipoproteins using a commercially available reagent. J. Lipid. Res. 1989; 30:627–630). […]

human LDL = assay: LDL oxidation determination (copper-induced, TBARS formation); format: biochemical; conditions: 3.0 μM; 4 h incubation; copper 10.0 μM
Method: The ability of these agents to inhibit LDL peroxidation was assessed in vitro following addition of copper (10.0 μM) by measuring the levels of thiobarbituric reactive substances (TBARS), a marker of lipid peroxidation. […] The EDTA content of the LDL samples obtained from human plasma was removed by gel filtration with PD-10 Sephadex […] filtration columns; PBS (nitrogen purged) was used as the eluent. The LDL samples (50 μg of protein/mL) were then preincubated with or without drug (3.0 μM) for 30 mm at 37° C. Oxidation of LDL was then induced by the addition of 10.0 μM CuSO4. The time course of LDL oxidation, measured by TBARS formation, was followed for 6 h at 37° C. ([…]. Potentiation of free radical-induced lipid peroxidative injury to sarcolemmal membranes by lipid amphiphiles. J. Biol. Chem. 1986; 261:1153-1157). […] The protein content of the LDL was determined using the Coomassie Protein Plus assay kit from Pierce Chemical. A rapid and sensitive method for the quantitation of microgram quantities of protein utilizing the principle of protein-dye binding. Anal. Biochem. 1976; 72:248-254).

Compound	overall membrane bilayer width, including surface hydration [1]	inhibition of lipid peroxidation ([2]; 100.0 nM, membrane preparation enriched with cholesterol)	TBARS formation compared to control lipid peroxidation (100%) (human LDL)	persistence of antioxidant effect over time ([2]; 10.0 μM, incubation up to 72 h)	effect on membrane dimensions, in words ([1]; includes intrabilayer headgroup separation)
CC(C)c1c(C(=O)Nc2ccccc2O)c(-c2ccccc2)c(-c2ccc(F)cc2)n1CCC(O)CC(O)CC(=O)O (stereo not shown) [ATM, ortho-hydroxy metabolite of atorvastatin]	58.0 Å	9%	65.6±7%	–	–
Cc1c(C)c2c(c(C)c1O)CC[C@@](C)(CCC[C@H](C)CCC[C@H](C)CCCC(C)C)O2 [vitamin E, α-tocopherol]	–	–	–	could not be reproduced	–
CCOC(=O)C1=C(COCCN)NC(C)=C(C(=O)OC)C1c1ccccc1Cl (stereo not shown) [AML, amlodipine besylate]	54.8 Å	–	93.3±6%	–	did not significantly alter membrane dimensions
